Measurements from patent US20260125357A1, “LACTATE ENHANCING COMPOUNDS AND USES THEREOF” (GLIAPHARM SA, priority 2022, published 2026).

What was measured:
Type in all cases: in vivo, mouse
C57Bl/6J wild-type mice = assay: Lactate and glucose biosensors, cerebral extracellular levels in freely moving mice; conditions: per os, doses 10 to 30 mg/kg, 3 hours, AUC ratio vs vehicle
Description: All experiments were carried out in strict accordance with the Swiss Federal Guidelines for Animal Experimentation and were approved by the Cantonal Veterinary Office for Animal Experimentation (Canton of Geneva, Switzerland). Adult male C57Bl/6J wild-type mice weighting 18-28 g (8 to 12 weeks of age) were used (Charles River Laboratories). Animals were housed in groups of 3-5 in polypropylene cages (30×40×15 cm) with wire mesh top in a temperature (22±2° C.) and humidity (55±15%) controlled environment on a 12-hour light cycle (07.00-19.00 h lights on), except after surgeries when animal were housed individually. The samples (Vehicle or compounds of the invention) were administered per os (gavage) in a solution made of water supplemented with 0.4% hydroxypropyl methylcellulose (HPMC) Methocel 4 KM (w/v) and 0.25% Tween-20 (v/v), as previously described (Thackaberry et al., 2010, Toxicol Sci., 117(2):485-92). Concentrations of the compounds tested ranged from 3 to 30 mg/kg.
Cerebral extracellular levels of L-lactate and D-glucose were monitored in vivo using lactate and glucose biosensors (Pinnacle Technology), respectively, according to the manufacturer's instructions. Cannulae were surgically implanted in the medial prefrontal cortices (coordinates: −1.0 mm (to bregma), lateral+/−1.0 mm (to mideline), ventral −1.0 mm (to dura))) of isoflurane-anesthetized mice 5 to 7 days prior experiment. After surgery, mice were monitored closely and received analgesic treatment for at least 4 days. After mice had fully recovered from surgery, compounds of the invention of vehicle were administered per os as previously described and cerebral levels of extracellular lactate and glucose were dynamically recorded for 6 hours using biosensors. Mice were administered vehicle alone first, followed 3 hours later by vehicle or Compounds of the Invention. Concentrations of cerebral extracellular lactate and glucose were calculated from the biosensor electric signals using post-calibration values. […] Area Under the Curve (AUC) of lactate and glucose concentration curves were calculated using Graphad Prism and the ratio of AUC after drug over Vehicle administration was calculated. Extracellular concentrations of lactate and glucose were measured in real time in freely moving animals for 3 hours after administration of Vehicle or compounds (1) to (4) at doses ranging from 10 to 30 mg/kg (FIG. 5).

[1] = system: mice injected with streptozotocin; assay: Morris Water Maze in streptozotocin ICV injection model of Alzheimer's disease; conditions: 30 mg/kg, 1 Day after training, vs Veh
Description: (§1) Craniotomies are performed on isoflurane-anesthetized mice for injections of Veh or streptozotocin in cerebral ventricles (coordinates: −0.5 mm (to bregma), lateral+/−1.0 mm (to midline), ventral −2.2 mm (to dura)) (Kelliny S. et al., Molecular Neurobiology, 2021). A solution composed of Veh (0.9% NaCl) or streptozotocin (5 mg/kg) prepared in 1 μl artificial cerebrospinal fluid solution (aCSF, 20 mM citrate buffer, pH 4.2) is injected in both cerebral ventricles using Hamilton micro syringe at a constant speed of 100-200 nl/min. After injection, skin of the skull is sutured, and mice is monitored closely and receives analgesic treatment for at least 4 days. After mice had fully recovered from surgery, memory tests including Morris Water Maze (MWM), Inhibitory Avoidance (IA) and Novel Object Recognition (NOR), as described below, are performed. […]
Morris Water Maze (MWM), a well-established spatial and contextual memory test, will be used. […] A number of parameters including the latency to find the platform, time spent around the platform, path efficiency, % time spent in each quadrant is recorded, using automated tracking software (Ethovision). The type of exploration (direct, random, scan of the area) is also recorded. […]

[2] = system: mice injected with streptozotocin; assay: Novel Object Recognition in streptozotocin ICV injection model of Alzheimer's disease; conditions: 1 day after training, vs Veh
Description: as §1
Novel object recognition (NOR) is a well-established protocol to evaluate recognition memory in rodent models. […] During the acquisition period, time spent exploring and number of contacts with each object are recorded. […] The time of exploration and number of contacts with each object are recorded. The activity is recorded automatically using automated tracking software (Ethovision).

Question: How did the “extracellular glucose levels in the brain” value (C57Bl/6J wild-type mice) turn out when `COc1cc2ccnc(Nc3ccc(S(C)(=O)=O)cc3)c2cc1OC` [Compound 2, 6,7-dimethoxy-N-(4-methylsulfonylphenyl)isoquinolin-1-amine] was run?
Answer: significantly increases extracellular glucose levels

Question: And the “extracellular lactate levels in the brain” value (C57Bl/6J wild-type mice)?
Answer: significantly increases extracellular lactate levels

Question: And the “memory in the Morris Water Maze” value [1]?
Answer: significantly higher

Question: And the “memory in the Novel object recognition” value ([2]; 10 mg/kg)?
Answer: significantly higher

Question: And the “memory in the Novel object recognition” value ([2]; 30 mg/kg)?
Answer: significantly higher
